Converted amounts (≈) assume the structure as drawn.
What was measured:
Acetylcholinesterase = target: T1, Acetylcholinesterase (Bos taurus, UniProt P23795); assay: Inhibition of bovine AChE using ACH iodide as substrate preincubated for 60 mins followed by substrate addition and measured after 1 hrs by spectrophotometeric analysis
T1 sequence (P23795 whole entry): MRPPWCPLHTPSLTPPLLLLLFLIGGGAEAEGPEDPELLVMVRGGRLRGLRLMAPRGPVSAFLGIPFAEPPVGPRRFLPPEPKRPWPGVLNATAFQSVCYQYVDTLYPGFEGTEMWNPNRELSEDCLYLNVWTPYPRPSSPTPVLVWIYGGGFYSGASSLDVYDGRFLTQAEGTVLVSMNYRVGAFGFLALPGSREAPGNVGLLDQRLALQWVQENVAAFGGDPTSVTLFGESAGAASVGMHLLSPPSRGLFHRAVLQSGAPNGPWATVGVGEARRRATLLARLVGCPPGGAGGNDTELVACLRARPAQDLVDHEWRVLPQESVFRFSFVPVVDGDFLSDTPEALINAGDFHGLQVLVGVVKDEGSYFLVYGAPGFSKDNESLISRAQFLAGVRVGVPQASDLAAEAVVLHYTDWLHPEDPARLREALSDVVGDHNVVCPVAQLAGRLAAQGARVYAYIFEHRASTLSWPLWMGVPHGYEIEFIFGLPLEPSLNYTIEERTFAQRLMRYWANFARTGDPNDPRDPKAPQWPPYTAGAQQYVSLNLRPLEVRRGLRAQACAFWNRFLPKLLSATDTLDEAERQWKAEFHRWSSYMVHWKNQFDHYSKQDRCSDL

Rattus norvegicus = organism: Rattus norvegicus; assay: Analgesic activity in rat assessed as inhibition of acetic acid-induced writhing; assay type: functional
Hepatitis C virus = assay: Antiviral activity against HCV replicon after 3 days by RT-PCR analysis; assay type: functional, organism-based, Hepacivirus hominis; settings: 72 h
Staphylococcus aureus = assay: Antimicrobial activity against Staphylococcus aureus; assay type: functional
Escherichia coli = assay: Antimicrobial activity against Escherichia coli; assay type: functional
[1] = target: T2, RNA-directed RNA polymerase (Hepacivirus hominis, UniProt O39930); assay: Inhibition of HCV genotype 1b NS5B RNA dependent RNA polymerase expressed in Escherichia coli BL21 (DE3) using biotinylated oligo-dT12 primer as substrate after 60 mins; set-up: species or system Hepatitis C virus subtype 1b
[2] = target: Sodium channel protein type 9 subunit alpha (Rattus norvegicus, UniProt O08562); assay: Inhibition of Nav1.7 in rat dorsal root ganglions at -60 mV holding potential by patch clamp assay
[3] = target: T2, RNA-directed RNA polymerase; assay: Inhibition of HCV NS5B RNA dependent RNA polymerase
[4] = target: Methionine aminopeptidase 2 (Homo sapiens, UniProt P50579); assay: Inhibition of human recombinant MetAP2 expressed in Sf9 insect cells using MAS as substrate after 30 mins by fluorometeric analysis
[5] = Inhibition of [33P]-ATP binding to Escherichia coli NR2 after 15 mins by liquid scintillation analysis
Staphylococcus = assay: Antimicrobial activity against Staphylococcus; assay type: functional

T2 sequence (O39930 whole entry): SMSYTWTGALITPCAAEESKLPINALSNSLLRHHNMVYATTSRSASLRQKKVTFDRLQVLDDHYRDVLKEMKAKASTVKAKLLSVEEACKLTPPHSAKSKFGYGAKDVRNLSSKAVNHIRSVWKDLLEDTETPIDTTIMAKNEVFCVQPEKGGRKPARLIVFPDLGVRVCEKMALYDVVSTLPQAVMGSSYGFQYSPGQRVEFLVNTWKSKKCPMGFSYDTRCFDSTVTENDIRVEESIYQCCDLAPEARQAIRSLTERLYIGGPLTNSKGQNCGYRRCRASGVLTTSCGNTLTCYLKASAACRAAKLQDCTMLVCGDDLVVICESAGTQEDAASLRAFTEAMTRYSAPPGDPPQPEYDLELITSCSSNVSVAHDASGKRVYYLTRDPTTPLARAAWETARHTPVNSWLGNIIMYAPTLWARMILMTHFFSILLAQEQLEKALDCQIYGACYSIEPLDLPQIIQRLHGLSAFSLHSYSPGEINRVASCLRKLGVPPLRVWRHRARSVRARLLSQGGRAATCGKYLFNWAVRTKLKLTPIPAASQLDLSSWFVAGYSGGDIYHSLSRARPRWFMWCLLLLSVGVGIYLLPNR
Chain of Methionine aminopeptidase 2 (P50579 whole entry): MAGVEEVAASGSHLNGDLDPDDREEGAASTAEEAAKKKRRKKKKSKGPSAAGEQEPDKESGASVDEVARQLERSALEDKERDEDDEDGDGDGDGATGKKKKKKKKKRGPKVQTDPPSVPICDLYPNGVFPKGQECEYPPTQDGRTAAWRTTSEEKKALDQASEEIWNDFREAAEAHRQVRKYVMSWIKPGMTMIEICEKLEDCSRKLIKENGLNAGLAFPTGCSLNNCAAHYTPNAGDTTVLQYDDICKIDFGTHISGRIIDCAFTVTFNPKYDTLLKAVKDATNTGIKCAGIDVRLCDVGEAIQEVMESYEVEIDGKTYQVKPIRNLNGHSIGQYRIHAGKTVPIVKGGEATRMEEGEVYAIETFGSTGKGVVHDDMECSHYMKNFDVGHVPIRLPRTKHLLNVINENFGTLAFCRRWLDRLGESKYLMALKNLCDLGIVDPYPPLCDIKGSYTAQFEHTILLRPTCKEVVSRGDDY
Chain of Sodium channel protein type 9 subunit alpha (O08562 whole entry): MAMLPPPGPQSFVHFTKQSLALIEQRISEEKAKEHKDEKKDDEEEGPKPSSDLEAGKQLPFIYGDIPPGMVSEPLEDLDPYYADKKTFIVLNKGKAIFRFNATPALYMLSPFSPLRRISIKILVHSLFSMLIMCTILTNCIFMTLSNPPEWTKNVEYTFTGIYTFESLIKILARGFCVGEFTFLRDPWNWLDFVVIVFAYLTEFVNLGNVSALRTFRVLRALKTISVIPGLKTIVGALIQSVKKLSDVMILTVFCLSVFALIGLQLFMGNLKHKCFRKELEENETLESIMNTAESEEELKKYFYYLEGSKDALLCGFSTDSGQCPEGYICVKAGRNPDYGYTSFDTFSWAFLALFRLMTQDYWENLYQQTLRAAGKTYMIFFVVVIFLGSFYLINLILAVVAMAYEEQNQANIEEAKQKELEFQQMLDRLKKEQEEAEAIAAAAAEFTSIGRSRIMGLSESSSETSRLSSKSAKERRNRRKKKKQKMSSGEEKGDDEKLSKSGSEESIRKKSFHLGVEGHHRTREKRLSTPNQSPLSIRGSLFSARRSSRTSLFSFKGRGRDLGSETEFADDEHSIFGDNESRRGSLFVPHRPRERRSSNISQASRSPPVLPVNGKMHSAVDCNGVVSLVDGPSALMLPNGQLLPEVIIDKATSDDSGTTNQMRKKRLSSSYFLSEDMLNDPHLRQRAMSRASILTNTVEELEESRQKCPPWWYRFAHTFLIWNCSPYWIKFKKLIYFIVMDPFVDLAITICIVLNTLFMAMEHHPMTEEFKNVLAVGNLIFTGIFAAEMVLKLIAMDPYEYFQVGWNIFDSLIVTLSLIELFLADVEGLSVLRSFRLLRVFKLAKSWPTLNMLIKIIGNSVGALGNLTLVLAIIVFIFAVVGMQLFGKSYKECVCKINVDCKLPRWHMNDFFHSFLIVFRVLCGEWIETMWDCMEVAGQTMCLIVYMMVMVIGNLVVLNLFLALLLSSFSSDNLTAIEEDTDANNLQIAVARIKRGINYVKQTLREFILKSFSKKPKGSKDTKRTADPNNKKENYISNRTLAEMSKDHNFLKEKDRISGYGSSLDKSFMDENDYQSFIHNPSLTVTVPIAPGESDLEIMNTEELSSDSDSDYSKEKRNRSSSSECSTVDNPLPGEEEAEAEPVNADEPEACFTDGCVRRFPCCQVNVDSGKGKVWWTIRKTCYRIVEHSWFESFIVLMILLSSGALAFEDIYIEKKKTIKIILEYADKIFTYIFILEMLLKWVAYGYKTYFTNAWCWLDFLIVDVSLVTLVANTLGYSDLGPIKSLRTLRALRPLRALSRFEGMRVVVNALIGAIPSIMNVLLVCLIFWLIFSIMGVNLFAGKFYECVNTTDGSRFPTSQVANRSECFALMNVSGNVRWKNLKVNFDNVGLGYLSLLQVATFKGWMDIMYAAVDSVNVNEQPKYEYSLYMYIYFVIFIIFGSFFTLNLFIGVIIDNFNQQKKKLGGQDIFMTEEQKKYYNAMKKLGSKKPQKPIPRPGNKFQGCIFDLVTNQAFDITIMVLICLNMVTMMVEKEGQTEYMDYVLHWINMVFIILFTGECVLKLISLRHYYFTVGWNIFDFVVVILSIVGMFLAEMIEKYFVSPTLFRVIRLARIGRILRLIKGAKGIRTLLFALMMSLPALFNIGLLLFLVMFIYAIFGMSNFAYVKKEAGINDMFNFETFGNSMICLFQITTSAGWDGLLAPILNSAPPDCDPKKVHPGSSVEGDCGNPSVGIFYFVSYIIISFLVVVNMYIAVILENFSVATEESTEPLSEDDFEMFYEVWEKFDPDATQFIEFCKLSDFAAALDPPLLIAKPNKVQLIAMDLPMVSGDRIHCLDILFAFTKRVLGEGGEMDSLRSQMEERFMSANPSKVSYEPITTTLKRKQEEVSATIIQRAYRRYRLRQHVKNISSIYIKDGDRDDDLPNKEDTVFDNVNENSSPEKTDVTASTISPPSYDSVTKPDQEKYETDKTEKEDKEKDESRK

## CC(=O)OC12C=CC(=O)N1c1ccccc1C(=O)O2 (stereo unspecified)
Acetylcholinesterase
  Ki: 4700 nM

## Cc1c(C(=O)c2ccc3ncccc3c2)c2cccc3c2n1C(CN1CCOCC1)CO3 (stereo unspecified)
Rattus norvegicus
  ED50: 3.5 mg/kg

## COC(=O)NC(C(=O)N1CCCC1c1ncc(-c2ccc3c(c2)-n2ccc4cc(-c5cnc(C6CCCN6C(=O)C(NC(=O)OC)C(C)C)[nH]5)cc(c42)O3)[nH]1)C(C)C (stereo unspecified)
Hepatitis C virus
  EC50: 0.01 nM

## CCCc1c(O)cc2oc3cccn3c(=O)c2c1O
Staphylococcus aureus
  MIC: 2 µg/mL (≈ 7.71 µM)
Escherichia coli
  MIC: 2 µg/mL (≈ 7.71 µM)

## CN(C)S(=O)(=O)NC(=O)c1ccc2c(C3CCCCC3)c(-c3ccccc3)n3c2c1OCC3
[1]
  IC50: < 10000 nM

## COc1c(O)cccc1C(=O)N1CCC2(CC1)Oc1ccccc1-n1c(C#N)ccc12
[2]
  IC50: < 2000 nM

## COC(=O)NC(C(=O)N1CCCC1c1ncc(-c2ccc3c(c2)OCn2c-3c(F)c3cc(-c4cnc(C5CCCN5C(=O)C(NC(=O)OC)C(C)C)[nH]4)ccc32)[nH]1)C(C)C (stereo unspecified)
[3]
  IC50: 0.001 nM

## CCN(CC)C/C=C\c1cc(F)ccc1S(=O)(=O)Nc1ccc2c(c1C(=O)O)OCc1cccn1-2
[4]
  IC50: < 50 nM

## CCCc1c(O)cc2oc3cc(Cl)cn3c(=O)c2c1O
[5]
  IC50: 20000 nM
Staphylococcus
  MIC: 0.2 to 0.78 µg/mL (≈ 0.681 to 2.66 µM)

Reference: ChEMBL document CHEMBL4229386, “Benzopyrroloxazines containing a bridgehead nitrogen atom as promising scaffolds for the achievement of biologically active agents” (Eur J Med Chem, 2018)
